This note sets out measurements from a melting point compilation (Tetko et al.; mined from patent text by program, amines drawn as free bases though some values may be those of a salt).

Broadly, the melting point is the temperature, or range, at which the solid turns liquid. Consider `CCn1c(C)c(C(C)=O)c(N=Cc2ccccc2)c1-c1ccccc1`, for which the melting point is 139 to 141 °C. Next, `O[C@H]1CC[C@H](Nc2nccc(-c3c[nH]c4ccccc34)n2)CC1`: 258 to 260 °C.

`CC(N1C(=O)C(=O)N(c2cccc(C#N)c2)C1=S)C(C)(C)C` (stereo unspecified) had a melting point of 168 to 169 °C.

`Fc1ccc(-c2cc(Cl)ncn2)c(F)c1` came in with a melting point of 65 to 69 °C.

`CCCCCCCCCCCCCCCCCCOc1cc(OCCOCCOCCOCC)cc(N(CC(=O)O)CC(=O)O)c1` had a melting point of 76 to 78 °C. With `O=C(c1ccc(-c2ccc(Cl)cc2)o1)N1CCN(c2cccc(Br)c2)CC1` the figure was 130 °C; with `O=C(O)Cc1ccc(OCCCCl)cc1`, 89 to 91 °C. Next, `CC(C)n1nc(-c2sc(NC(=O)c3ccccn3)nc2-c2ccccc2)ccc1=O`: 245 to 246 °C.

The compound `Cc1ccccc1CN(c1ncnc2c1ncn2C1OC(CO)C(O)C1O)C1CCCCC1` (stereo unspecified) had a melting point of 129 to 130 °C.

`CS(=O)(=O)c1ccc(-n2cccc2-c2ccc(F)cc2)cc1`: the melting point was 195 to 196 °C. Take `CCCCCCCCC1C=CC(Oc2ccc(C(=O)O)o2)=C2N=C3CCCC(C)(C)C3=C21` (stereo unspecified): the melting point was 118 to 120 °C. With `CCOC(=O)Cn1c(-c2ccc(OC)c(OC)c2)cc(=Nc2c(C)cc(C)cc2C)n(C)c1=O` the figure was 112 to 113 °C. Next, `Cn1nc(-c2ccccc2)c(Oc2ccc([N+](=O)[O-])cc2)c1-c1ccccc1`: 85 to 110 °C. With `C[C@@H]1c2ccccc2-c2ccc(F)cc2N1C(=O)c1ccc(O)cc1O` the figure was 182 to 184 °C; with `CC(=O)Oc1ccc2c(c1)C(C(Cl)(Cl)Cl)OC(C(Cl)(Cl)Cl)O2` (stereo unspecified), 142 to 144 °C; with `O=C(N[C@@H](Cc1ccc(OCc2ccccc2)cc1)C(=O)O)c1cn2cc(/C=C/c3ccc(Cl)cc3)ccc2n1`, 267 to 270 °C. For the compound `CN1C(=O)CN=C(c2ccccc2)c2ccccc21`, the melting point lay in the range of 151 to 154 °C. For `S=C(NCCN1CCOCC1)Nc1nccs1`, the melting point is 150 to 152 °C. For the compound `CC(C)n1nc(-c2c(-c3ccccc3)nn3ccc(C(=O)N4CCC(c5ccccc5)CC4)cc23)ccc1=O`, the melting point is 184 to 185 °C.

`Cc1noc(Cc2ccccc2Nc2c(Cl)cccc2Cl)n1` came in with a melting point of 93.5 to 94.5 °C. Next, `N#Cc1cc2[nH]cc(C(=O)O)c2cc1-c1ccc(C2(CO)CC2)cc1`: 271 to 272 °C. For `O=[N+]([O-])c1ccc(C(Cl)=NNc2ccccc2)cc1`, the melting point lay in the range of 157 to 158 °C. With `Cc1cc(-c2ccccc2O)nn1-c1ccccc1` the figure was 225 to 229 °C. With `COc1ccccc1Cc1nc2ccccc2c(=O)n1CCCl`, the melting point was in the range of 109 to 111 °C. Next, `O=C(O)c1ccccc1CCc1cccc(Br)c1`: 88 to 90 °C; `CC(C)CC(CO)NC(=O)C(Cc1c[nH]cn1)NC(=O)C(Cc1cccc2ccccc12)NC(=O)COc1cccc2ccccc12` (stereo unspecified): 215 to 217 °C; `COc1ccc2cc([C@H](C)C(=O)OCCN(C)C(=O)c3ccc(CO[N+](=O)[O-])cc3)ccc2c1`: 108 to 115 °C. Next, `CCCCCCCCCCCCCCC(=S)NCCCN1CCOCC1`: 46 °C; `Cc1ccc(C2=C(c3ccc(S(C)(=O)=O)cc3)CN(C3CC3)C2=O)cc1`: 214 to 216 °C; `NC(=O)c1ccccc1NCc1ccc(Cl)cc1`: 138 to 139 °C. With `O=C(Nc1ccccc1)N(Cc1ccc(Br)cc1)C1CCCC1` the figure was 130 to 132 °C.

On to `Nc1c(Cl)cc(CC(=O)c2ccccc2)c2c1OCCO2`, for which the melting point lay within 133 to 135 °C.

Regarding `Brc1nnnn1Cc1ccccc1`, the melting point was 54 °C. In the case of `Cc1cc(-c2cc(C(F)F)n3ncc(C(=O)Nc4cccc(S(C)(=O)=O)c4)c3n2)ccc1C(F)(F)F`, the melting point came to 261 °C.

The compound `COC(=O)Cc1c(C)n(Cc2ccccc2OC)c2ccc(OC)cc12` displayed a melting point of 98 to 100 °C. Regarding `CCOC(=O)c1sc2nc(-c3ccccc3)cnc2c1N`, the melting point is 173 to 175 °C. Next, `CCC(Cl)C(=O)Nc1c(C(=O)CC(=O)Nc2nccs2)cccc1C(F)(F)F` (stereo unspecified): 170 °C; `CC1(C)Oc2ccc3nc(C(N)=O)ccc3c2C(NCCc2ccccc2)C1O` (stereo unspecified): 197 to 199 °C.

The compound `c1cc2c(c(-c3nc4ncccc4o3)c1)CCCC2` showed a melting point of 87 to 90 °C. With `CC(C#CC1=C(C)C(O)C(O)CC1(C)C)=CCO` (stereo unspecified) the figure was 115 to 117 °C. With `CCOC(=O)c1cnn2c1nc(S)c1cnc3c(cnn3CC)c12` the figure was 238 to 240 °C. Take `Cc1ccc(CCc2nc3cc(-c4ccc(S(=O)(=O)N(C)C)cc4)cnc3[nH]2)nc1N`: the melting point amounted to 157 °C. With `O=S(=O)(c1ccccc1)N1CCN(C(c2ccccc2)c2ccc(Cl)cc2)CC1` (single isomer, unassigned; (-)) the figure was 116 to 118 °C; with `O=C(Nc1ccc(-c2c[nH]c(=O)cn2)cc1)OCc1ccccc1`, 240 to 244 °C; with `CC(COc1c(-c2ccccc2)c(=O)oc2ccccc12)CN1CCOCC1` (stereo unspecified), 113 °C.

`COc1ccc2c(c1)S(=O)(=O)C(C(=O)Nc1ccc(F)cc1)C(=O)N2C` (stereo unspecified) gave a melting point of 202 to 204 °C. With `COC(C)c1ccc(OCCCN2CCC(c3noc4cc(F)ccc34)CC2)c(O)c1` (stereo unspecified) the figure was 98 to 100 °C.

`COC(=O)C(=O)c1ccc(OCCCCOc2ccccc2)cc1` returned a melting point of 57 to 59 °C. Compound `Nc1ccc(-c2nnsc2-c2ccc(N)cc2)cc1` displayed a melting point of 236 °C.

In turn, `CC#CCOc1ccc(OCC(=O)O)cc1` displayed a melting point of 114 to 116 °C. With `O=C1CN(C(=O)OCC2c3ccccc3-c3ccccc32)CC(=O)O1` the figure was 180 to 185 °C; with `O=C(Nc1ccc(-n2nc(C3CC3)cc2C2CC2)cc1)c1ccc2nc[nH]c2c1`, 170 to 176 °C.

The compound `COc1ccc2c(c1)C=Cn1c(nnc1S(C)=O)C2` (stereo unspecified) returned a melting point of 241 to 242 °C. Next, `O=C(O)Cc1ccc2oc(-c3ccc(Cl)cc3)nc2c1`: 241 to 242 °C; `C=CCc1cc2c(c(CC=C)c1O)CCC(=O)N2CC(O)CC` (stereo unspecified): 115 to 116 °C. Next, `CCOC(=O)c1cn(C2CSC2)c2nc(Cl)c(F)cc2c1=O`: 157 to 161 °C. Next, `Cn1c(=O)c(C#N)c(Cl)c2ccccc21`: 235 °C; `O=C1c2ccccc2C(=O)N1OCCOCc1ccccc1F`: 62 to 64 °C; `Nc1ccc2nc(CN3CCCC3)ccc2c1`: 102 to 104 °C.

`CC(=O)N(c1ccccn1)c1ncc(Br)s1` registered a melting point of 132 to 138 °C. With `CN(N)c1ncnc2c1cnn2C` the figure was 213 to 215 °C; with `COc1cc(-c2nn(C)c(C(F)(F)F)c2Br)c(F)cc1N`, 85 to 86 °C; with `COc1cc2c(cc1C(F)(F)F)N(C(=O)Nc1ccc(Oc3cccnc3)nc1)CC2`, 202 to 204 °C. With `CC/C(=C(\c1ccc(I)cc1)c1ccc(OCCCCCBr)cc1)c1ccccc1` the figure was 78 to 80 °C; with `COCCC(=O)Nc1cccc(-c2cccc3cc(Cc4cccc(C(F)(F)F)c4)sc23)c1`, 102 to 103 °C; with `COCc1cccc(OCCc2cnc(SC)[nH]c2=O)c1`, 129 to 131 °C. Next, `COC(=O)c1ccc2c(c1)C(=O)C(=Cc1ccc(OC)c(OC)c1OC)O2`: 181 to 183 °C; `Cn1nc(C(=O)O)cc1-c1ccccc1`: 149 to 150 °C. The compound `CC1=C(C#N)C(c2ccccc2[N+](=O)[O-])C(C(=O)O)=C(C)N1` (stereo unspecified) came in with a melting point of 225 °C.

`O=C(NCC1(c2nc(C3CC3)cs2)CC1)c1ccccc1C(F)(F)F` displayed a melting point of 83.4 to 84.2 °C.

`CC(=O)Nc1nc(CCc2ccc(CCNC(=N)N)s2)cs1`: the melting point lay within 122 to 123 °C. Next, `COc1cc(OC)nc(OC(C(=O)O)C(C)(c2ccccc2)c2ccccc2)n1` (stereo unspecified): 229 to 234 °C; `CSC(=O)c1cccc2c1[nH]c1ccccc12`: 122 to 123 °C; `Cc1cccc2c1C(=O)CC2=O`: 125 to 128 °C. `CN1CCn2c(-c3ccc(F)c(-c4ccc(F)cc4C#N)c3)cnc2C1=O` displayed a melting point of 224 °C. `CN1CCN(c2ccc3c(c2)NC(=O)C(C)(c2ccc(N)cc2)C3=O)CC1` (stereo unspecified) showed a melting point of 265 to 267 °C. Next, `COc1cn2nc(Cl)ccc2n1`: 134 to 136 °C; `COC(=O)c1ccccc1S(=O)(=O)NC(=O)c1nc(OC)cc(OC)n1`: 163 to 165 °C.

With `O=[N+]([O-])c1cccc(-n2cnc3c([N+](=O)[O-])cccc32)c1`, the melting point lay within 159 to 161 °C. For the compound `O=C1CCc2ccc(OCCCCN3CCCN(c4cccc(Cl)c4Cl)CC3)cc2N1`, the melting point was 88 to 89 °C. `CC(C)(C)CC(C)(C)C(CCC(=O)OO)CC(=O)OO` (stereo unspecified) showed a melting point of 60 to 62 °C. With `CCOC(=O)c1c(C(F)(F)F)cc(C(F)(F)F)nc1N` the figure was 84 to 86 °C; with `CCCCC(NC(=O)c1ccccc1)C(=O)CN(C)C(=O)N1CCCC1C(=O)O` (stereo unspecified), 40 to 80 °C. Next, `O=C1c2ccccc2C(=O)N1CSc1ccccn1`: 93 to 94 °C; `COCCOc1c(S(C)(=O)=O)ccc(C(=O)c2cnn(C)c2O)c1C`: 112 to 114 °C. With `CN1C(=O)N(CCC(=O)O)C(C)(C)C1=O` the figure was 103 °C; with `COc1cccc(N(C)C)c1C(=O)NC(=O)Nc1cccc(C(F)(F)F)c1`, 180 °C. The compound `Nc1ccc(S(=O)(=O)NCCCN2CCOCC2)cc1` returned a melting point of 96 to 97 °C. `C#Cc1cnn2ccc(-c3ccc(Cl)cc3)nc12` displayed a melting point of 128 to 129 °C. With `O=S(=O)(c1ccccc1)c1c[nH]c2ccc(CCN3CCN(Cc4ccccc4)CC3)cc12` the figure was 150 to 153 °C; with `CC(C)C[C@H](NC(=O)c1ccc2c(c1)Nc1ccccc1S2)C(=O)N[C@H]1CCOC1OC(=O)C(C)(C)C` (stereo partly specified), 107 to 109 °C.
